The source of these data is PMC5656713 (Advances in Therapy, 2017).

Read-outs that look alike come from different tables or passages of the source.

A short description of data set [1]: clinical. As to conditions: male, human, in vivo.
The conditions of data set [2]: male, human, in vivo.
The subject of another data set is serum cortisol. Nature of the data set: Fasting serum cortisol during mifepristone alone and plus ketoconazole. As to conditions: day 13, predose, after mifepristone 600 mg alone. In kind it is in vivo, human.
The next data set deals with plasma ACTH. Nature of the data set: Fasting plasma ACTH during mifepristone alone and plus ketoconazole. It is filed as in vivo, human. The note with it: day 13, predose, after mifepristone 600 mg alone.
The next data set can be described thus: Safety and tolerability. It is filed as in vivo, human.
The test system of a further data set is glucocorticoid receptor. The note with it: cited from earlier work.
A short description of data set [3]: clinical. The note with it: male, human, in vivo, 600 mg.
The conditions of data set [4]: cited from earlier work.
The conditions of data set [5]: with concomitant ketoconazole 200 mg twice daily vs mifepristone 600 mg alone.

`CC(=O)N1CCN(c2ccc(OCC3COC(Cn4ccnc4)(c4ccc(Cl)cc4Cl)O3)cc2)CC1` (stereo not drawn) [Ketoconazole]: in “clinical [1]” (200 mg), the time of peak concentration (Tmax) (commonly the time at which the peak concentration occurs) came to 3 h. The area under the curve AUC(0-t) – broadly, the area under the concentration-time curve up to a stated or last time point – in “clinical [1]” (AUC (AUC0–12) GLSM) turned out to be 37700 ng·h/mL. Also, in [2], the “Mean predose trough concentrations” value was 1353.07 to 1615.64 ng/mL.

Take `CC#C[C@]1(O)CC[C@H]2[C@@H]3CCC4=CC(=O)CCC4=C3[C@@H](c3ccc(N(C)C)cc3)C[C@@]21C` [Mifepristone]: the Mean serum cortisol in the data set with serum cortisol is given as 41.9 µg/dL. Further, the “Mean ACTH” value in the data set with plasma ACTH was found to be 148 pg/mL. Also, the “subjects with at least one treatment-emergent AE” value was 57.1% in the data set “Safety and tolerability” (coadministration of mifepristone and ketoconazole (period 2), 8/14); 56.3% in “Safety and tolerability” (mifepristone alone (period 1), 9/16). Besides, the “serious AEs” value in the data set “Safety and tolerability” (whole study, mifepristone alone and plus ketoconazole) is “No serious AEs”. Also, the “affinity to the glucocorticoid receptor compared with 100% for mifepristone” value in the data set on glucocorticoid receptor is recorded as 100%. For the same molecule, the values for the half-life (in the data set “clinical [3]”; in [4]) were over 64 h and ~ 85 h, respectively. Also, the “increase in systemic exposure based on GMR, AUC0–24” value in data set [5] was 38%.
